Reference: paper PMC5404560, “Towards Selective Mycobacterial ClpP1P2 Inhibitors with Reduced Activity against the Human Proteasome” (Antimicrobial Agents and Chemotherapy, 2017)
≈ marks a conversion by molar mass, not a printed value. Where two headings read alike, the source gives them in different places. Marks after values point to notes of the source that are not given here.

Assays:
M. smegmatis ΔprcAB = format: cell-based
M. tuberculosis H37Rv = experiment: microbe, parasite or virus in culture; format: cell-based
Mycobacterium bovis BCG = experiment: microbe, parasite or virus in culture; format: cell-based; conditions: Mycobacterium tuberculosis variant bovis BCG, read-out: MIC50 for Mycobacterium bovis BCG
Vero cells = experiment: MTS cytotoxicity assay, Vero; format: cell-based; conditions: fold higher
Protocol: (§1) The MTS (Promega) reduction assay was used according to manufacturer's guidelines to assess Vero (ATCC […]) and HepG2 (ATCC HB-8065) cell viability. […] Carbonyl cyanide m-chlorophenylhydrazone (CCCP) was used as a cytotoxic positive control. Cytotoxicity was determined twice in independent experiments.

[1] = MTS cytotoxicity assay, HepG2; format: cell-based, human; conditions: human; MTS assay; read-out: GI50, HepG2 cells
Protocol: as §1

HepG2 cells = experiment: MTS cytotoxicity assay, HepG2; format: cell-based, human; conditions: fold higher
Protocol: as §1

Log D (octanol/PBS) = format: physicochemical; conditions: pH 7.4, read-out: Log D (measured at pH 7.4)
Protocol: (§2) A parallel artificial-membrane permeability assay (PAMPA) and mouse liver microsome (MLM), human liver microsome (HLM), aqueous solubility, Log D, protein binding, and cytochrome P450 2D6 and 3A4 assays were carried out at Piramal Pharma Solutions.

[2] = Thermodynamic aqueous solubility; format: physicochemical; conditions: thermodynamic from solid
Protocol: as §2

[3] = Parallel artificial-membrane permeability assay (PAMPA); format: in vitro ADME; conditions: read-out: PAMPA Pe
Protocol: as §2

[4] = Plasma protein binding, mouse; format: in vitro ADME; conditions: bound, read-out: Plasma protein binding in mice (%) (converted)
Protocol: as §2

[5] = Plasma protein binding, human; format: in vitro ADME; conditions: bound, read-out: Plasma protein binding in humans (%) (converted)
Protocol: as §2

[6] = Human liver microsome stability; format: in vitro ADME; conditions: liver microsomes, read-out: HLM t1/2
Protocol: as §2

[7] = Mouse liver microsome stability; format: in vitro ADME; conditions: liver microsomes, read-out: MLM t1/2
Protocol: as §2

CYP450 3A4 = biological target: T1, CYP450 3A4 (Homo sapiens, UniProt P08684); experiment: Recombinant cytochrome P450 enzyme assay, 3A4; format: in vitro ADME; conditions: highest concentration tested 10 μM
T1 construct: Piramal Pharma Solutions (contract laboratory)
T1 sequence (P08684 whole entry): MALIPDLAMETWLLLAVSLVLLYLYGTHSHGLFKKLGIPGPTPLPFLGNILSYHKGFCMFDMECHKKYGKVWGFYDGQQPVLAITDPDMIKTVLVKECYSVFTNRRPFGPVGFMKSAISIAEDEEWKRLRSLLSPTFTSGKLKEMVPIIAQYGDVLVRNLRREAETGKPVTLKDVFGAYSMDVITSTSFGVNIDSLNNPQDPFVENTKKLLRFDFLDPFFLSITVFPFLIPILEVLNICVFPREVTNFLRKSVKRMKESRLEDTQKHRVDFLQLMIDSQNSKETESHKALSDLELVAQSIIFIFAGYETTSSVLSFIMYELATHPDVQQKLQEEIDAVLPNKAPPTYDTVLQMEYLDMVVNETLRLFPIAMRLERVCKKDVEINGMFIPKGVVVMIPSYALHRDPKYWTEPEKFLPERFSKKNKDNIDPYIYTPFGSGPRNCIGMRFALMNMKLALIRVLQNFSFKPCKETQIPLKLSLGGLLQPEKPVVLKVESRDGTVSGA
Protocol: as §2

CYP450 2D6 = biological target: T2, CYP450 2D6 (Homo sapiens, UniProt P10635); experiment: Recombinant cytochrome P450 enzyme assay, 2D6; format: in vitro ADME; conditions: highest concentration tested 10 μM
T2 construct: Piramal Pharma Solutions (contract laboratory)
T2 sequence (P10635 whole entry): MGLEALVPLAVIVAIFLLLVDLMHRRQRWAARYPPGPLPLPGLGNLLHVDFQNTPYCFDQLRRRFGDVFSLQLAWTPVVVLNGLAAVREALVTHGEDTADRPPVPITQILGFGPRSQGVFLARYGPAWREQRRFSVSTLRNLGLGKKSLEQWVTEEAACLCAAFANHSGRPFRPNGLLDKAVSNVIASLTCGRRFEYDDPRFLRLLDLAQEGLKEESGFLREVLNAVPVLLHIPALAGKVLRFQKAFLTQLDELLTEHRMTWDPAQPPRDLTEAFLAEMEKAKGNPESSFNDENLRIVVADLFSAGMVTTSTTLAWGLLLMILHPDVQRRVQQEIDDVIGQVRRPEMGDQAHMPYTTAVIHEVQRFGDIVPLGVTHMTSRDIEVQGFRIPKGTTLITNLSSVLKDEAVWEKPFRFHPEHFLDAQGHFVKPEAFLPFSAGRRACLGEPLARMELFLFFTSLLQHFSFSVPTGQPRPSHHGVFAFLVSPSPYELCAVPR
Protocol: as §2

[8] = Intravenous/oral pharmacokinetics and tissue distribution in mice; format: in vivo; conditions: for Vd: 10 mg/kg
Protocol: Female ICR mice (aged ∼6 to ∼8 weeks; 3 animals per time point) were used for all studies. Studies were performed as per approved internal protocols for animal care and use. Doses were administered as clear solutions in 50% polyethylene glycol 400 (PEG400) plus […] (D5W). Animals were sacrificed by overdose of CO2, and blood was collected through cardiac puncture at 5 min (10 min per os [p.o.]), 30 min, and 1, 2, 4, 8, 16, and 24 h after administration in tubes containing K3 EDTA as an anticoagulant. The samples were centrifuged, and the plasma was separated and stored at −70°C until analysis. Plasma samples were processed and analyzed by LC-tandem MS. Pharmacokinetic parameters were estimated by noncompartmental methods using WinNonlin (version 5.2; Pharsight, CA).

panel of 62 proteases = experiment: Protease selectivity panel, overall; format: biochemical
Protocol: (§3) Protease panel testing was carried out by Reaction Biology Corporation.

Chymase = Chymase (Homo sapiens, UniProt P23946); experiment: Protease panel: Chymase; format: biochemical; conditions: Table 6; 10-dose response, top 10 μM
Sequence of Chymase (P23946 22-247, species assumed): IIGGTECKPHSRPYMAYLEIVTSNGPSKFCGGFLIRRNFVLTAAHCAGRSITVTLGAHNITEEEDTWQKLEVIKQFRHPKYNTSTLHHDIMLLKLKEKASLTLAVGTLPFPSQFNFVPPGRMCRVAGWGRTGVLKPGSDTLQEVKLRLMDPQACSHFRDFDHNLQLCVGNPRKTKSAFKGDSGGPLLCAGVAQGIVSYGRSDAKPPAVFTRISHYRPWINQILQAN
Protocol: as §3

Kallikrein 1 = Kallikrein 1 (Homo sapiens, UniProt P06870); experiment: Protease panel: Kallikrein 1; format: biochemical; conditions: Table 6; 10-dose response, top 10 μM
Sequence of Kallikrein 1 (P06870 25-262, species assumed): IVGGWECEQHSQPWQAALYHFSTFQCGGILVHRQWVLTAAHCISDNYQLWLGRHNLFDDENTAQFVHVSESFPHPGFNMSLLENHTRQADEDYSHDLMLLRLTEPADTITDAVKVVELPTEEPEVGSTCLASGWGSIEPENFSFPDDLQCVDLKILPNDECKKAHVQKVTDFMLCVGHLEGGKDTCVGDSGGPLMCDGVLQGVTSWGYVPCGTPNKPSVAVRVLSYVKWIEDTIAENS
Protocol: as §3

Kallikrein 7 = Kallikrein 7 (Homo sapiens, UniProt P49862); experiment: Protease panel: Kallikrein 7; format: biochemical; conditions: Table 6; 10-dose response, top 10 μM
Sequence of Kallikrein 7 (P49862 30-253, species assumed): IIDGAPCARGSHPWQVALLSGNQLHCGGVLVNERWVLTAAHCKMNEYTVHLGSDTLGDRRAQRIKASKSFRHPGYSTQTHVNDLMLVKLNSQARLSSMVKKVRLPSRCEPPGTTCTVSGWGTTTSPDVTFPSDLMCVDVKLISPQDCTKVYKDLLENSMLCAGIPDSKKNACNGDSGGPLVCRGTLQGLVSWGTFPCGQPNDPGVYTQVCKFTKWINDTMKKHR
Protocol: as §3

Plasma kallikrein = biological target: T3, Plasma kallikrein (Homo sapiens, UniProt P03952); experiment: Protease panel: Plasma kallikrein; format: biochemical; conditions: Table 6; 10-dose response, top 10 μM
T3 construct: Reaction Biology Corporation (contract testing)
T3 sequence (P03952 20-638, species assumed): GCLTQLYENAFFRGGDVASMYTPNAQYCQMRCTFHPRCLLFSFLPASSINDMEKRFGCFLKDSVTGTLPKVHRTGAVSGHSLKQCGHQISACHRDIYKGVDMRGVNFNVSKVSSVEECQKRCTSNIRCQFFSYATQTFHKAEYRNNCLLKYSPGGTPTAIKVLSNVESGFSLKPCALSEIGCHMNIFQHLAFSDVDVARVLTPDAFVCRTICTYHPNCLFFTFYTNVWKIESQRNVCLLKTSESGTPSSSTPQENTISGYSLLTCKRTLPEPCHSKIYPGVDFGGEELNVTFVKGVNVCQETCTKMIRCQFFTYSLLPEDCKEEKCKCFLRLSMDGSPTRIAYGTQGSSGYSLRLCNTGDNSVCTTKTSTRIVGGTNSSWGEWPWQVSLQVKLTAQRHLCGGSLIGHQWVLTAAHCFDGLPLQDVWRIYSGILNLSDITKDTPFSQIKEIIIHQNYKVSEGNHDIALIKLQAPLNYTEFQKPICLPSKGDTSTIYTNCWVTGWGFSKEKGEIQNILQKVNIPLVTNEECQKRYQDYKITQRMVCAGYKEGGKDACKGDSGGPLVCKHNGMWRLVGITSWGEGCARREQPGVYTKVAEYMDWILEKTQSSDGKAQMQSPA
Protocol: as §3

Proteinase K = biological target: T4, Proteinase K (Parengyodontium album, UniProt P06873); experiment: Protease panel: Proteinase K; format: biochemical
T4 construct: Reaction Biology Corporation (contract testing)
T4 sequence (P06873 106-384): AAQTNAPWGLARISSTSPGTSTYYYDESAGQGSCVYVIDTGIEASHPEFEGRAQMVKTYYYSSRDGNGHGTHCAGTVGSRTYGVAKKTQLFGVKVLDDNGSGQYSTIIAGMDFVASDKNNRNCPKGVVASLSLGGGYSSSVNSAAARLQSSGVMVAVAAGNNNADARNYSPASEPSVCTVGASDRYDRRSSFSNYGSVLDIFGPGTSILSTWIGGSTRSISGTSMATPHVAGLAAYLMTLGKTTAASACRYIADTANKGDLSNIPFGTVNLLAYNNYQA
Protocol: as §3

ClpP1P2 = ClpP1P2 (Mycolicibacterium smegmatis, UniProt A0R197+A0R198); experiment: ClpP1P2 inhibition whole-cell RFP-SsrA reporter assay
Sequence of ClpP1P2 (A0R198 4-203): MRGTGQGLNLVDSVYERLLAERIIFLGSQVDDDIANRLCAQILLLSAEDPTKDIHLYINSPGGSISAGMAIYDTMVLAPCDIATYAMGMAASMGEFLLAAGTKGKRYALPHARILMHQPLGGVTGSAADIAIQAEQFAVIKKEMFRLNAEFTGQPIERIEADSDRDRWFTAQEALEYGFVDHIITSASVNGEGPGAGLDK
Sequence of ClpP1P2 (A0R197 17-218): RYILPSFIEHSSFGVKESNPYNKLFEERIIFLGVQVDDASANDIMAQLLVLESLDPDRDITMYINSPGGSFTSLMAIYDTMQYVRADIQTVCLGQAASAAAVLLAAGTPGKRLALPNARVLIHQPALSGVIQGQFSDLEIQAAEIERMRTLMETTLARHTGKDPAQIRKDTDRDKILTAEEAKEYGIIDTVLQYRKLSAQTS

HepG2 proteasome = HepG2 proteasome (Homo sapiens, UniProt P20618+P28074); experiment: Cell-based proteasome CT-like peptidase inhibition assay (Proteasome-Glo)
Protocol: A cell-based CT-like peptidase assay was performed using the Proteasome-Glo cell-based assay reagent (Promega) according to the manufacturer's guidelines. Briefly, HepG2 cells (10^4 cells/well) were treated with the compounds indicated in the figures for 2 h, followed by incubation with the luminescent substrate for 10 min. Luminescence was detected with a Tecan M200 Pro plate reader.

For `O=C(N[C@@H](Cc1ccccn1)C(=O)N[C@@H](CCc1ccccc1)B(O)O)c1cnccn1` [Compound 58, ((R)-3-phenyl-1-((S)-2-(pyrazine-2-carboxamido)-3-(pyridin-2-yl)propanamido)propyl)boronic acid], the “M. smegmatis ΔprcAB MIC50” value (M. smegmatis ΔprcAB; 24 h exposure, OD600, concentration inhibiting 50% of growth) was 2.7 ± 0.5 µM, the “improvement of bacterial-growth inhibition compared to compound 1” value (M. smegmatis ΔprcAB; M. smegmatis ΔprcAB) was “over 2 fold” and the “MIC50 (μM) against M. tuberculosis H37Rv” value (M. tuberculosis H37Rv; 5 days) was 2.5 ± 1.3^b μM. The “MIC90 (μM) against M. tuberculosis H37Rv” value (M. tuberculosis H37Rv; 5 days) was 6 ± 2.8 µM (≈ 2.6 µg/mL), the “MIC90 concentration relative to MIC50 (fold higher)” value (M. tuberculosis H37Rv; H37Rv) was under 3 fold and the MIC50 (M. tuberculosis H37Rv; Mycobacterium tuberculosis, H37RV, 120 h, 5 days, read-out: MIC50 (μM) against M. tuberculosis H37Rv) was 2.5 µM. The MIC90 (M. tuberculosis H37Rv; Mycobacterium tuberculosis, H37RV, 120 h, 5 days, read-out: MIC90 (μM) against M. tuberculosis H37Rv) was 6 µM (≈ 2.6 µg/mL), the MIC50 (M. tuberculosis H37Rv; Mycobacterium tuberculosis, H37RV, read-out: MIC50-TB) was 1.08 µg/mL and the MIC50 (Mycobacterium bovis BCG) was 1.5 µM (≈ 0.65 µg/mL). The “GI50 relative to M. tuberculosis growth-inhibitory potency, Vero” value (Vero cells) was 200 fold, the GI50 [1] was 500 µM and the “GI50 relative to M. tuberculosis growth-inhibitory potency, HepG2” value (HepG2 cells) was 200 fold. The logD (Log D (octanol/PBS)) was 2.96, the solubility ([2]; aqueous medium at pH 7.4, aqueous buffer, pH 7.4, text, read-out: aqueous solubility) was over 400 µg/mL and the solubility ([2]; aqueous solution at pH 4, aqueous buffer, thermodynamic, pH 4, read-out: Aq solubility (μg/ml) at pH 4) was 422 µg/mL (≈ 973 µM). It also gave a solubility ([2]; aqueous solution at pH 7.4, aqueous buffer, thermodynamic, pH 7.4, read-out: Aq solubility (μg/ml) at pH 7.4) of 450 µg/mL (≈ 1040 µM), a Papp [3] of 3.5 ×10⁻⁶ cm/s and a fraction unbound [4] of 0.0954. For the same molecule, the fraction unbound [5] was 0.109, the half-life [6] was over 24 min and the half-life [7] was about 8 min. The IC50 (CYP450 3A4) was over 10 µM, the IC50 (CYP450 2D6) was over 10 µM and the “abnormal clinical signs for up to 24 h after injection” value ([8]; 10 mg/kg i.v.) was “No abnormal clinical signs were observed”. For the same molecule, the “acute side effects during tail vein injection” value ([8]; 10 mg/kg i.v.) was “No acute side effects were observed”, the “time concentrations remained above anti-M. tuberculosis MIC50” value ([8]; 10 mg/kg i.v.) was “approximately 4 h” and the maximum concentration ([8]; 10 mg/kg i.v., plasma) was 32.7 µM. For the same molecule, the “AUC0–t(last) in brain” value ([8]; 100 mg/kg p.o., brain) was 286 ng·h/g, the “AUC0–t(last) in lung” value ([8]; 100 mg/kg p.o., lung) was 16,253 ng · h/g and the C0 ([8]; female, ICR, mouse, iv, 10 mg/kg i.v., plasma, read-out: C0 (maximum concentration)) was 14200 ng/mL. The AUC(0-inf) ([8]; female, ICR, mouse, plasma, iv, 10 mg/kg i.v., read-out: AUC0-inf) was 21100 ng·h/mL, the AUC(0-t) ([8]; female, ICR, mouse, plasma, iv, 10 mg/kg i.v., read-out: AUC0-t(last)) was 20800 ng·h/mL and the clearance ([8]; female, ICR, mouse, plasma, iv, 10 mg/kg i.v., read-out: CL (systemic plasma clearance) (converted)) was 8.33 mL/min/kg. The half-life ([8]; female, ICR, mouse, plasma, iv, 10 mg/kg i.v., read-out: T½ (elimination half-life) (converted)) was 222 min, the Vd ([8]; female, ICR, mouse, plasma, iv, 10 mg/kg i.v., read-out: Vss) was 2.1 L/kg and the Vd ([8]; female, ICR, mouse, plasma, iv, 10 mg/kg i.v., read-out: Vz) was 2.5 L/kg. It also gave a Tmax ([8]; female, ICR, mouse, plasma, lung, brain, po, 100 mg/kg p.o., read-out: Tmax (converted)) of 10 min, a bioavailability ([8]; female, ICR, mouse, plasma, oral, 10 mg/kg p.o. vs 10 mg/kg i.v., read-out: F (absolute oral bioavailability)) of 14% and an AUC(0-inf) ([8]; female, ICR, mouse, plasma, po, 10 mg/kg p.o., read-out: AUC0-inf) of 2870 ng·h/mL. For the same molecule, the AUC(0-t) ([8]; female, ICR, mouse, plasma, po, 10 mg/kg p.o., read-out: AUC0-t(last)) was 2840 ng·h/mL, the Tmax ([8]; female, ICR, mouse, plasma, po, 10 mg/kg p.o., read-out: Tmax (converted)) was 30 min and the half-life ([8]; female, ICR, mouse, plasma, po, 10 mg/kg p.o., read-out: T½ (converted)) was 234 min. The Cmax ([8]; female, ICR, mouse, po, 10 mg/kg p.o., plasma, read-out: Cmax) was 798 ng/mL, the AUC(0-inf) ([8]; female, ICR, mouse, po, 100 mg/kg p.o., brain, Fig. 10B, read-out: AUC0-inf, Brain) was 378 ng·h/mL and the AUC(0-t) ([8]; female, ICR, mouse, po, 100 mg/kg p.o., brain, Fig. 10B, read-out: AUC0-t(last), Brain) was 286 ng·h/mL. It also gave a Cmax ([8]; female, ICR, mouse, po, 100 mg/kg p.o., brain, read-out: Cmax in brain) of 93 ng/g, a Tmax ([8]; female, ICR, mouse, po, 100 mg/kg p.o., brain, read-out: Tmax, Brain) of 12 min and a half-life ([8]; female, ICR, mouse, po, 100 mg/kg p.o., brain, read-out: T½, Brain (converted)) of 12 min. For the same molecule, the AUC(0-inf) ([8]; female, ICR, mouse, po, 100 mg/kg p.o., lung, Fig. 10B, read-out: AUC0-inf, Lung) was 17000 ng·h/mL, the AUC(0-t) ([8]; female, ICR, mouse, po, 100 mg/kg p.o., lung, Fig. 10B, read-out: AUC0-t(last), Lung) was 16300 ng·h/mL and the Cmax ([8]; female, ICR, mouse, po, 100 mg/kg p.o., lung, read-out: Cmax in lung) was 3370 ng/g. It also gave a Tmax ([8]; female, ICR, mouse, po, 100 mg/kg p.o., lung, read-out: Tmax, Lung) of 12 min, a half-life ([8]; female, ICR, mouse, po, 100 mg/kg p.o., lung, read-out: T½, Lung (converted)) of 18 min and an AUC(0-inf) ([8]; female, ICR, mouse, po, 100 mg/kg p.o., plasma, read-out: AUC0-inf, Plasma) of 23600 ng·h/mL. It also gave an AUC(0-t) ([8]; female, ICR, mouse, po, 100 mg/kg p.o., plasma, read-out: AUC0-t(last), Plasma) of 22800 ng·h/mL, a Cmax ([8]; female, ICR, mouse, po, 100 mg/kg p.o., plasma, read-out: Cmax, Plasma) of 6910 ng/mL and a Tmax ([8]; female, ICR, mouse, po, 100 mg/kg p.o., plasma, read-out: Tmax, Plasma) of 12 min. The half-life ([8]; female, ICR, mouse, po, 100 mg/kg p.o., plasma, read-out: T½, Plasma (converted)) was 12 min, the Dose linearity ([8]; p.o., plasma Cmax and AUC0–inf at 10 and 100 mg/kg) was “very good” and the “share of panel of 62 proteases inhibited with a submicromolar IC50” value (panel of 62 proteases; 2/62) was 3%. The “share of panel of 62 proteases inhibited with an IC50 between 1 to 10 μM” value (panel of 62 proteases; 5/62) was 8%, the “share of panel of 62 proteases against which active (<10 μM)” value (panel of 62 proteases; top concentration tested 10 μM) was 11% and the IC50 (Chymase) was 5.75 µM. The IC50 (Kallikrein 1) was 6.03 µM, the IC50 (Kallikrein 7) was 9.31 µM and the IC50 (Plasma kallikrein) was 4.4 µM. It also gave an IC50 (Proteinase K; Table 6, 10-dose response, top 10 μM) of 0.35 µM, an IC50 (Proteinase K; supplement panel table, test and control compound) of 0.352 µM and an IC50 (ClpP1P2; M. smegmatis ΔprcAB IC50 (μM) for ClpP1P2, whole-cell RFP-SsrA reporter, 3 h incubation) of 1.5 ± 0.5 µM. The “improvement of ClpP1P2 potency compared to compound 1” value (ClpP1P2; M. smegmatis ΔprcAB reporter) was 4 fold and the IC50 (HepG2 proteasome) was 0.367 ± 0.103 µM.
